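All cell lines were grown in 96-well plates and treated with compound for 48 hours. GI50 marks 50% less growth. At the TGI there is no net growth.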

Some test systems named below: LOX IMVI melanoma; HCT-15 colon; OVCAR-4 ovarian; NCI-H522 lung; COLO 205 colon; A498 renal; HOP-92 NSCLC; NCI-H460 lung; OVCAR-3 ovarian; MALME-3M melanoma.
Common to all, as to test: NCI-60 cell line screen, 48 h

On to `Cc1cc(NCCCCNc2ccnc3cc(Cl)ccc23)nc(Nc2ccc(C(=O)N3CCCCC3)cc2)n1`, for which the GI50 in the test on LOX IMVI melanoma was 1.44 µM; in the test on HCT-15 colon it was 1.28 µM; in the test with OVCAR-4 ovarian it was 1.6 µM; in the test on NCI-H522 lung, 1.86 µM; in the test on COLO 205 colon, 1.76 µM; in the test on A498 renal it was 1.61 µM. Further, the GI50 in the test on HOP-92 NSCLC is 1.21 µM; in the test on NCI-H460 lung, 1.78 µM; with OVCAR-3 ovarian, 1.7 µM. The TGI is 3.01 µM in the test on LOX IMVI melanoma; 3.13 µM in the test on HCT-15 colon; 5.52 µM in the test on OVCAR-4 ovarian; 4.22 µM with NCI-H522 lung; 3.51 µM in the test on COLO 205 colon; 3.72 µM in the test with A498 renal. For the same molecule, the TGI was 3.03 µM with HOP-92 NSCLC, 3.78 µM with NCI-H460 lung and 3.44 µM in the test with OVCAR-3 ovarian.

Consider `COc1cc(/C=N\O[Si](C)(C)C(C)(C)C)ccc1O[Si](C)(C)C(C)(C)C`, for which the TGI in the test on LOX IMVI melanoma was 62 µM; with MALME-3M melanoma, greater than 100 µM; with HCT-15 colon, 82.3 µM; in the test on OVCAR-4 ovarian, greater than 100 µM; in the test on COLO 205 colon it was greater than 100 µM; in the test with HOP-92 NSCLC, 60.1 µM. Besides, the figures for the TGI with NCI-H460 lung and in the test with OVCAR-3 ovarian were greater than 100 µM and 54.1 µM, respectively.

As for `NC(CCc1ncc(C(=O)O)s1)C(=O)O` (stereo not given), the TGI in the test with LOX IMVI melanoma, in the test on MALME-3M melanoma, in the test with HCT-15 colon, in the test on NCI-H522 lung, in the test with COLO 205 colon and in the test on A498 renal was greater than 100 µM throughout. In addition, the TGI with HOP-92 NSCLC, in the test on NCI-H460 lung and in the test on OVCAR-3 ovarian was greater than 100 µM throughout.

In the case of `Cc1c2c(C(N)=O)nccc2c(C)c2c1c1ccccc1n2Cc1ccccc1`, the TGI with LOX IMVI melanoma was found to be 19.7 µM; in the test on HCT-15 colon, 44.2 µM; in the test on OVCAR-4 ovarian, 7.47 µM; with NCI-H522 lung, 54.6 µM; in the test with A498 renal it was 46 µM; in the test on HOP-92 NSCLC, 25.1 µM. Further, the figures for the TGI with NCI-H460 lung and in the test with OVCAR-3 ovarian were 28.8 µM and 21.1 µM, respectively.

For the molecule `O=C(NC1CCCCC1)c1ccc(Nc2ncnc3c2cnn3-c2ccccc2)cc1`, the GI50 in the test on LOX IMVI melanoma is 4.49 µM; with MALME-3M melanoma, 1.97 µM; in the test with HCT-15 colon, 99.3 µM; with NCI-H522 lung it was 6.4 µM; with COLO 205 colon it was 12.5 µM; in the test with A498 renal, 3.83 µM. Also, the GI50 was 2.53 µM in the test with HOP-92 NSCLC, 7.09 µM with NCI-H460 lung and 14.3 µM with OVCAR-3 ovarian. Also, the TGI with LOX IMVI melanoma was 22.3 µM; in the test with MALME-3M melanoma, 4.94 µM; in the test on HCT-15 colon, greater than 100 µM; in the test with NCI-H522 lung it was greater than 100 µM; in the test on COLO 205 colon, greater than 100 µM; in the test on A498 renal, 39.4 µM. Further, the TGI was 8.29 µM in the test with HOP-92 NSCLC, greater than 100 µM in the test with NCI-H460 lung and greater than 100 µM with OVCAR-3 ovarian.

Regarding `CC1CCC(C(C)(C)c2ccccc2)C(=O)C1` (stereo not given), the TGI in the test on LOX IMVI melanoma, in the test on MALME-3M melanoma, in the test with HCT-15 colon, in the test on OVCAR-4 ovarian, with COLO 205 colon and in the test on A498 renal was greater than 100 µM in each case. The TGI with HOP-92 NSCLC, with NCI-H460 lung and in the test with OVCAR-3 ovarian was greater than 100 µM each time.

`NC(=O)c1cn(Cc2ccccc2)c(=O)n1Cc1ccccc1`: the TGI in the test on LOX IMVI melanoma, with HCT-15 colon, with OVCAR-4 ovarian, with NCI-H522 lung, in the test on COLO 205 colon and with A498 renal was greater than 100 µM each time. For the same molecule, the TGI in the test with HOP-92 NSCLC, in the test with NCI-H460 lung and with OVCAR-3 ovarian was greater than 100 µM in each case.

Consider `COc1cc2c3c(n(CCCN(CCO)CCO)c(=O)c2cc1OC)-c1cc2c(cc1C3=O)OCO2`, for which the GI50 was less than 0.01 µM in the test with LOX IMVI melanoma; 0.67 µM in the test with MALME-3M melanoma; 0.838 µM with HCT-15 colon; 0.842 µM in the test with OVCAR-4 ovarian; 0.218 µM in the test on COLO 205 colon; less than 0.01 µM in the test with A498 renal. Also, the GI50 with NCI-H460 lung was less than 0.01 µM; in the test with OVCAR-3 ovarian, 0.062 µM. Also, the TGI was found to be 0.158 µM with LOX IMVI melanoma; 23.4 µM in the test with MALME-3M melanoma; 20.7 µM in the test on HCT-15 colon; 3.61 µM in the test with OVCAR-4 ovarian; 12.7 µM in the test on COLO 205 colon; 0.345 µM with A498 renal. The TGI worked out at 4.18 µM with HOP-92 NSCLC, 2.28 µM with NCI-H460 lung and 0.295 µM in the test with OVCAR-3 ovarian.

For `NCCCOc1cc2ccccc2cc1C(=O)NCCCOc1cc2ccccc2cc1C(=O)Nc1ccc(Cl)cc1O`, the GI50 in the test on LOX IMVI melanoma was 0.436 µM; in the test with MALME-3M melanoma it was 1.48 µM; in the test with HCT-15 colon, 0.658 µM; with OVCAR-4 ovarian it was 0.247 µM; in the test on NCI-H522 lung it was 0.929 µM; in the test with COLO 205 colon it was 1.7 µM. In addition, the GI50 in the test on A498 renal is 0.552 µM; in the test on NCI-H460 lung, 0.202 µM; in the test on OVCAR-3 ovarian it was 1.81 µM. Also, the TGI was 1.78 µM in the test on LOX IMVI melanoma; 3.5 µM with MALME-3M melanoma; 2.32 µM with HCT-15 colon; 0.737 µM with OVCAR-4 ovarian; 2.89 µM in the test with NCI-H522 lung; 3.34 µM with COLO 205 colon. Also, the results for the TGI in the test on A498 renal, in the test with NCI-H460 lung and in the test with OVCAR-3 ovarian were 1.99 µM, 0.387 µM and 3.49 µM, respectively.

With `NC(N)=N/N=C(\N=Nc1ccccc1)c1ccc(Cl)cc1`, the GI50 was 1.18 µM with LOX IMVI melanoma; 4.68 µM in the test with MALME-3M melanoma; 3.02 µM in the test with HCT-15 colon; 1.79 µM in the test on OVCAR-4 ovarian; 3.35 µM in the test with NCI-H522 lung; 2.46 µM in the test on COLO 205 colon. The figures for the GI50 in the test with A498 renal, with NCI-H460 lung and with OVCAR-3 ovarian were 9.53 µM, 3.13 µM and 2.8 µM, respectively. Besides, the TGI with LOX IMVI melanoma stood at 3.54 µM; in the test with MALME-3M melanoma, 17.2 µM; with HCT-15 colon, 14.9 µM; in the test on OVCAR-4 ovarian, 12.6 µM; with NCI-H522 lung, 13.8 µM; in the test on COLO 205 colon, 5.36 µM. For the same molecule, the TGI with A498 renal is 22.2 µM; with NCI-H460 lung it was 16.5 µM; in the test with OVCAR-3 ovarian it was 7.24 µM.

Turning to `C=C1C(O)C2C(=C(C)C13CC3)C(=O)C(C)(C)C2OC` (stereo not given), the GI50 with LOX IMVI melanoma was greater than 100 µM; with MALME-3M melanoma, greater than 100 µM; with HCT-15 colon it was greater than 100 µM; in the test with OVCAR-4 ovarian it was greater than 100 µM; with NCI-H522 lung, 75.4 µM; in the test on COLO 205 colon, 95.6 µM. Further, the GI50 is 24.8 µM with HOP-92 NSCLC, greater than 100 µM in the test on NCI-H460 lung and greater than 100 µM in the test on OVCAR-3 ovarian. Further, the TGI in the test on LOX IMVI melanoma, with MALME-3M melanoma, in the test on HCT-15 colon, with OVCAR-4 ovarian, in the test with NCI-H522 lung and with COLO 205 colon was greater than 100 µM throughout. In addition, the TGI in the test on HOP-92 NSCLC, in the test with NCI-H460 lung and with OVCAR-3 ovarian was greater than 100 µM throughout.
